Results as given in patent US20250382631A1, “PROTAC-CID SYSTEMS FOR USE IN MULTIPLEX GENE REGULATION” (William Marsh Rice University, priority 2022, published 2025).

Key:
[1] = test system: luciferase expression in the liver of FVB mice injected with Virus a and Virus b; assay: In vivo PROTAC-CID gene activation via AAV, IVIS bioluminescence imaging
Method: (§1) AAV production and Mouse for in vivo delivery. […] FVB mice were purchased from the Jackson Laboratory.
IVIS imaging system and quantification. Luciferase […] intensity was measured by the IVIS imaging system (PerkinElmer). Mice were anesthetized with a mixture of isoflurane and oxygen. and then intraperitoneally (i.p.) injected with D-luciferin (15 mg/ml, GoldBio no. LUCNA-100). 5 mins after the D-luciferin injection, mice were imaged with IVIS imaging system. Quantitative analysis of imaging signals (luminescence counts) was processed by Living Imaging software (PerkinElmer).

[2] = biological target: T1, endogenous BRD4 (Mus musculus, UniProt Q9ESU6); assay: Immunoblot of endogenous BRD4 in mice liver tissue; assay type: in vivo, FVB mice; conditions: 50 mg/kg MZ1 i.p., FIG. 21
T1 construct: Immunoblot analysis of endogenous long isoform BRD4 (BRD4L) after 50 mg/kg MZ1 treatment i.p; from tissue; host or cells: liver of FVB mice (AAV-infected, MZ1-treated)
From the text: (§2) Immunoblots and RT-qPCR. Mice liver tissues or culture cells were lysed in RIPA buffer (Abcam no. ab156034) supplemented with phosphatase inhibitor (Thermo Fisher Scientific no. PIA32957) and protease inhibitors (Fishers cientific no. A32965). Lysates were resolved by 10% Tris-glycine SDS-PAGE, transferred to PVDF membrane (Bio-Rad no. 1620177), and blotted with antibodies BRD4 (Abcam, ab128874), GAPDH (Cell Signaling Technology, 2118L), luciferase (ABclonal, requested), Ran (ABclonal, A0976), Hsp90 (Cell Signaling Technology, 4874). Images were acquired using LumiQuant AC600 (Acuronbio Technology Inc), quantification analysis was processed by ImageJ software. Trizol reagent (Sigma no. T9424) was used to extract total RNA from liver. RNAs were purified using RNeasy Mini kit (QIAGEN no. 4106). The quality and concentration of total RNA were checked on NanoDrop™ 2000/2000c Spectrophotometers (Thermo Fisher Scientific no. ND2000LAPTOP). Reverse transcription of total RNA was performed using a Applied Biosystems™ High-Capacity cDNA Reverse Transcription Kit (Thermo Fisher Scientific no. 4368813) and qPCR was conducted with SYBR Green Master Mix (Abclonal no. RK21203) on QuantStudio 6 Real-time PCR system (Thermo Fisher Scientific).
as §1

[3] = test system: endogenous BRD4 (BRD4S, BRD4L); assay: Immunoblot of endogenous BRD4 in HEK293T cells; assay type: cell-based, human; conditions: MZ1 20 nM and 100 nM, 48 h, HEK293T with MZ1 PROTAC-CID, FIG. 22
From the text: as §2

[4] = test system: three different genomic sites in HEK293T cells; assay: Inducible C-to-T base editing by A3G5.13 (Sanger sequencing, EditR); assay type: cell-based, human; conditions: CBE A3G5.13 with dTAG-13 PROTAC-CID, 100 nM dTAG-13, 3 days, across three genomic sites, FIG. 3C
Method: Base editing measurement. Before transfection, HEK293T cells were plated into 96 well plates (Corning no. 3598) with 20% confluency. 0.5 μL Lipofectamine 2000 (Life Technology no. 11661089) was mixed with 25 μL DMEM for 5 mins incubation. 80 ng to 210 ng Plasmids (See Table 1 for plasmid dosage used in each condition) were then mixed with 25 μL DMEM and added into the Lipofectamine 2000 and DMEM mixture for 20 min incubation at the room temperature. Mixture was added into cells gently. After 12 h, supernatants were changed with fresh 10% FBS (Thermo Fisher Scientific no. 10437028) DMEM medium (Thermo Fisher Scientific no. 10569044), Puromycin (10 μg/mL Thermo Fisher Scientific no. A1113803) and supplied with 100 nM dTAG-13 (TOCRIS no. 6605/5) or DMSO (Sigma, no. D8418). After 3 days, cell medium was removed and cells were treated with 100 μL lysis buffer (10 mM tris-HCl (pH=7.5), 0.05% SDS, and proteinase K (25 μg/mL, Thermo Fisher Scientific no. 01169965)) followed by 37° C. 1 h, 58° C. 30 min and inactivated at 95° C. for 20 min. The cell lysis was amplified by 2×Phanta Max Master Mix (Vazyme no. p515) following the program: 95° C. 3 min, 95° C. 15s and 58° C. 15s with 72° C. for 35 cycles, and 72° C. 5 min. The editing efficiency was measured by Sanger sequencing and analyzed by EditR (https://moriaritylab.shinyapps.io/editr_v10/) (Kluesner et al., 2018).

[5] = test system: endogenous HEK3 locus in HEK293T cells; assay: Inducible prime editing, His6 Tag insertion (Sanger sequencing, TIDE); assay type: cell-based, human; conditions: high TRE3G-driven PE2 plasmid dose (120 ng per well), 100 nM dTAG-13, 3 days, FIG. 3H
Method: Prime editing measurement. HEK293T cells were seeded into 96 well plates (Corning no. 3598). When the cells reach 20% confluency, 265 ng to 290 ng plasmids (See Table 1 for plasmid dosage used in each condition) were firstly mixed with 25 μL DMEM. 0.5 μL Lipofectamine 2000 (Life Technology no. 11661089) was incubated with 25 μL DMEM for 5 min. Next, plasmid solution was mixed with the Lipofectamine 2000 solution for 20 min and added into the cells gently. After 12 h, the supernatants were changed with fresh 10% FBS (Thermo Fisher Scientific no. 10437028) DMEM medium (Thermo Fisher Scientific no. 10569044) supplied with Puromycin (10 μg/mL Thermo Fisher Scientific no. A1113803) and 100 nM dTAG-13 (TOCRIS no. 6605/5) or DMSO (Sigma, no. D8418). 3 days post-induction, the supernatant was removed and supplied with 100 μL lysis buffer (10 mM tris-HCl (pH=7.5), 0.05% SDS, and proteinase K (25 μg/mL, Thermo Fisher Scientific no. 01169965)) followed by 37° C. 1 h, 58° C. 30 min and inactivated at 95° C. for 20 min. […] The insertion efficiency was analyzed online in TIDE (https://tide.nki.nl/) (Brinkman et al., 2018) with the setting (left boundary=100, Decomposition window (115-685 bp), Indel size range (28 bp), P-value threshold=0.001).

| SMILES | increase of the luciferase expression in the liver compared with the group without MZ1 ([1]; 10 mg/kg MZ1 intraperitoneally, 25 days after AAV, imaging 6 h post-MZ1, FIG. 4E) [fold] | Fluc expression after second MZ1 injection ([1]; second injection ten days after the first, 50 mg/kg i.p., FIGS. 4G and 4H) | expression of BRD4 in mice liver tissue [2] | degradation of endogenous BRD4 isoforms [3] | C-to-T editing [4] | prime editing efficiency (His6 Tag insertion) [5] |
| --- | --- | --- | --- | --- | --- | --- |
| Cc1ncsc1-c1ccc(CNC(=O)[C@@H]2C[C@@H](O)CN2C(=O)[C@@H](NC(=O)COCCOCCOCCNC(=O)C[C@@H]2N=C(c3ccc(Cl)cc3)c3c(sc(C)c3C)-n3c(C)nnc32)C(C)(C)C)cc1 [MZ1] | ~7 | elevated expression of Fluc with a comparable gene activation level as the first administration | did not observe a significant change in the expression of BRD4 | only observed the degradation of the short isoform of BRD4 (BRD4S), not the conventional long isoform BRD4 (BRD4L) |  |  |
| CC[C@H](C(=O)N1CCCC[C@H]1C(=O)O[C@H](CCc1ccc(OC)c(OC)c1)c1ccccc1OCC(=O)NCCCCCCOc1cccc2c1C(=O)N(C1CCC(=O)NC1=O)C2=O)c1cc(OC)c(OC)c(OC)c1 (stereo partly drawn) [dTAG-13] |  |  |  |  | 30-50% | more than 20% |
